From ChEMBL document CHEMBL5537133, “Rational design and optimization of novel 4-methyl quinazoline derivatives as PI3K/HDAC dual inhibitors with benzamide as zinc binding moiety for the treatment of acute myeloid leukemia” (Eur J Med Chem, 2024)

Key:
[1] = molecular target: Phosphatidylinositol 4,5-bisphosphate 3-kinase catalytic subunit alpha isoform (Homo sapiens, UniProt P42336)
Description: Inhibition of PI3Kalpha (unknown origin) using PIP2 as substrate incubated for 1 hr in presence of ATP by ADP-Glo assay

Histone deacetylase 1 = Histone deacetylase 1 (Homo sapiens, UniProt Q13547)
Description: Inhibition of C-terminal 6His-FLAG-tagged human recombinant HDAC1 (1 to 482 residues) expressed in Sf9 cells using Ac-peptide as substrate preincubated for 15 mins followed by substrate addition and measured after 1 hr by plate reader analysis

MV4-11 = test: Antiproliferative activity against human MV4-11 cells assessed as reduction in cell viability incubated for 72 hrs by CCK-8 assay; format: functional, cell-based; conditions: MV4-11, 72 h
BaF3 = test: Antiproliferative activity against mouse BaF3 cells assessed as reduction in cell viability incubated for 72 hrs by CCK-8 assay; format: functional, cell-based; conditions: BaF3, 72 h

Sequence of Phosphatidylinositol 4,5-bisphosphate 3-kinase catalytic subunit alpha isoform (P42336 whole entry, canonical isoform): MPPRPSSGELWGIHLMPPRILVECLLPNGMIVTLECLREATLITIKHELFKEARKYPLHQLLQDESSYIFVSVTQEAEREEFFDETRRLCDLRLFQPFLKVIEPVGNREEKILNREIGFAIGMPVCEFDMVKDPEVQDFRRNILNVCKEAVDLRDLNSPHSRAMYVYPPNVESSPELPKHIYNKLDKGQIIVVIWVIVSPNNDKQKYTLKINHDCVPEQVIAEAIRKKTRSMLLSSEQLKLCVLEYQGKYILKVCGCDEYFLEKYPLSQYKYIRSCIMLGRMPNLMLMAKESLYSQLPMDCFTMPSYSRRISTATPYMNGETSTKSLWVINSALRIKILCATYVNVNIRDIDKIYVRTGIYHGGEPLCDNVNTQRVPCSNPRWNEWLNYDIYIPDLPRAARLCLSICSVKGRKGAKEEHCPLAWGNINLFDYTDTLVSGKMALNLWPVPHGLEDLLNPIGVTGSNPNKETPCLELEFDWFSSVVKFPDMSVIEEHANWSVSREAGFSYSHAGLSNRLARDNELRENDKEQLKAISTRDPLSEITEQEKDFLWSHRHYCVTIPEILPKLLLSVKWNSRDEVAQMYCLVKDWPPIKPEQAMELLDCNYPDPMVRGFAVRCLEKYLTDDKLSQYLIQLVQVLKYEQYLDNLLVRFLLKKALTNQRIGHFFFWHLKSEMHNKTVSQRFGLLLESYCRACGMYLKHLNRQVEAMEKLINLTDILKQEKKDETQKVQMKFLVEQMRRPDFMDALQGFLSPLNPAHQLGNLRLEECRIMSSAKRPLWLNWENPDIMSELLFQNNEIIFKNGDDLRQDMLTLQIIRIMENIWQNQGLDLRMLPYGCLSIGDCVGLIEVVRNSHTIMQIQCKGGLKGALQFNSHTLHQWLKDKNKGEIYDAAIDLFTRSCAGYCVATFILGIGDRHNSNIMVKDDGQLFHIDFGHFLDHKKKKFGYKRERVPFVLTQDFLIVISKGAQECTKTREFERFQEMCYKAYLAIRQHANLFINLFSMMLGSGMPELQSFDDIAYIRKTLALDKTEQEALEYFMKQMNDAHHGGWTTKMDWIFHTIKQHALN
Sequence of Histone deacetylase 1 (Q13547 whole entry): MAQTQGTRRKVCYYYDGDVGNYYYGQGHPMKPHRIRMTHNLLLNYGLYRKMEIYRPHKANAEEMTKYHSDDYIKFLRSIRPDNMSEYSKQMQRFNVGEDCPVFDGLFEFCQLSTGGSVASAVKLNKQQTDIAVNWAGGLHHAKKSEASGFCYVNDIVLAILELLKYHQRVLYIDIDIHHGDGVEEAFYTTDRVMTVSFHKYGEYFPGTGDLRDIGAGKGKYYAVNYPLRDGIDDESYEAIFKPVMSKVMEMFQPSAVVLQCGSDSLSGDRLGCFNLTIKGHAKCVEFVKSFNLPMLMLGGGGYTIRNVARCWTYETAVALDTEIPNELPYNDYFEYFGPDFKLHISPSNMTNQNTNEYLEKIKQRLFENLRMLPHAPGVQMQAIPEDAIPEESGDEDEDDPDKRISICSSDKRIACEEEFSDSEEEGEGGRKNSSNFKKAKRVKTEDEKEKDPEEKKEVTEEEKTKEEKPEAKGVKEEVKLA

SMILES | IC50 [1] | IC50 (Histone deacetylase 1) | IC50 (MV4-11) | IC50 (BaF3)
COc1ncc(-c2cc(OCCCOc3ccc(C(=O)Nc4ccccc4N)cc3)c3ncnc(C)c3c2)cc1NS(=O)(=O)c1ccc(F)cc1F | 0.39 nM | 95 nM | 390 nM | 
COc1ncc(-c2cc(OCCOc3ccc(C(=O)Nc4ccccc4N)cc3)c3ncnc(C)c3c2)cc1NS(=O)(=O)c1ccc(F)cc1F | 0.58 nM | 56 nM | 410 nM | 
O=C(CCCCCCC(=O)Nc1ccccc1)NO [VORINOSTAT] |  |  |  | 800 nM

Continued, values first:

IC50 [1] | IC50 (Histone deacetylase 1) | IC50 (MV4-11) | IC50 (BaF3) | SMILES
0.39 nM | 253 nM | 10 nM |  | COc1ncc(-c2cc(OCCCCCCCCC(=O)Nc3ccccc3N)c3ncnc(C)c3c2)cc1NS(=O)(=O)c1ccc(F)cc1F
0.4 nM | 3030 nM | 60 nM |  | COc1ncc(-c2cc(OCCCCCCCCCC(=O)Nc3ccccc3N)c3ncnc(C)c3c2)cc1NS(=O)(=O)c1ccc(F)cc1F
0.23 nM | 4710 nM | 30 nM |  | COc1ncc(-c2cc(OCCCC(=O)Nc3ccccc3N)c3ncnc(C)c3c2)cc1NS(=O)(=O)c1ccc(F)cc1F
0.21 nM | 1310 nM | 10 nM |  | COc1ncc(-c2cc(OCCCCCC(=O)Nc3ccccc3N)c3ncnc(C)c3c2)cc1NS(=O)(=O)c1ccc(F)cc1F
